Data taken from patent US20200369630A1, “HERBICIDALLY ACTIVE 3-PHENYL-5-TRIFLUOROMETHYLISOXAZOLINE-5-CARBOXAMIDES OF CYCLOPENTYLCARBOXYLIC ACIDS AND ESTERS” (Bayer Aktiengesellschaft, priority 2017, published 2020).

Assays:
Assay in all cases: Post-emergence herbicidal action
Assay type in all cases: in vivo
[1] = test system: ALOMY: Alopecurus myosuroides; settings: rated visually after about 3 weeks
Method: (§1) [table] Seeds of monocotyledonous and dicotyledonous weeds and crop plants are placed in sandy loam in plastic or wood-fiber pots, covered with soil and cultivated in a greenhouse under controlled growth conditions. 2 to 3 weeks after sowing, the test plants are treated at the one-leaf stage. The compounds of the invention, formulated in the form of wettable powders (WP) or as emulsion concentrates (EC), are then sprayed onto the green parts of the plants as aqueous suspension or emulsion with addition of 0.5% additive at a water application rate of […] (converted). After the test plants had been kept in the greenhouse under optimum growth conditions for about 3 weeks, the activity of the preparations is rated visually in comparison to untreated controls. For example, 100% activity=the plants have died, 0% activity=like control plants.

[2] = test system: AMARE: Amaranthus retroflexus; settings: rated visually after about 3 weeks
Method: as §1

AVEFA: Avena fatua = settings: Table C2, post-emergence, dosage 320 (0.32 kg of active substance per hectare), rated visually after about 3 weeks
Method: as §1

[3] = test system: ECHCG: Echinochloa crus-galli; settings: Table C2, post-emergence, dosage 320 (0.32 kg of active substance per hectare), rated visually after about 3 weeks
Method: as §1

HORMU: Hordeum murinum = settings: rated visually after about 3 weeks
Method: as §1

LOLRI: Lolium rigidum = settings: rated visually after about 3 weeks
Method: as §1

[4] = test system: POLCO: Polygonum convolvulus; settings: rated visually after about 3 weeks
Method: as §1

STEME: Stellaria media = settings: Table C2, post-emergence, dosage 320 (0.32 kg of active substance per hectare), rated visually after about 3 weeks
Method: as §1

VERPE: Veronica persica = settings: rated visually after about 3 weeks
Method: as §1

[5] = Table C2, post-emergence, dosage 320 (0.32 kg of active substance per hectare)
[6] = Table C4, post-emergence, 320 g/ha

Row | SMILES | Herbicidal action against [%] ALOMY [1, 5] [%] | Herbicidal action against [%] AMARE [2, 5] [%] | Herbicidal action against [%] AVEFA (AVEFA: Avena fatua) [%] | Herbicidal action against [%] ECHCG [3] [%] | Herbicidal action against [%] HORMU (HORMU: Hordeum murinum; [5]) [%] | Herbicidal action against [%] LOLRI (LOLRI: Lolium rigidum; [5]) [%] | Herbicidal action against [%] POLCO [4, 5] [%] | Herbicidal action against [%] STEME (STEME: Stellaria media) [%] | Herbicidal action against [%] VERPE (VERPE: Veronica persica; [5]) [%] | Herbicidal action against [%] ALOMY [1, 6] [%] | Herbicidal action against [%] AMARE [2, 6] [%] | Herbicidal action against [%] HORMU (HORMU: Hordeum murinum; [6]) [%] | Herbicidal action against [%] LOLRI (LOLRI: Lolium rigidum; [6]) [%] | Herbicidal action against [%] POLCO [4, 6] [%] | Herbicidal action against [%] VERPE (VERPE: Veronica persica; [6]) [%]
1 | COC(=O)C1CCC(NC(=O)C2(C(F)(F)F)CC(c3cc(F)c(F)c(F)c3)=NO2)C1 (mixture of isomers) [Example I-171] | 100 | 80 | 90 | 80 | 80 | 100 | 80 | 80 | 80 | – | – | – | – | – | –
2 | CCOC(=O)C1CCC(NC(=O)C2(C(F)(F)F)CC(c3cc(F)c(F)c(F)c3)=NO2)C1 (mixture of isomers) [Example I-185] | 90 | 80 | 100 | 80 | 90 | 90 | 90 | 80 | 80 | – | – | – | – | – | –
3 | O=C(O)C1CCC(NC(=O)C2(C(F)(F)F)CC(c3cccc(F)c3)=NO2)C1 (mixture of isomers) [Example I-311] | 100 | 90 | 100 | 100 | 100 | 100 | 100 | 100 | 90 | – | – | – | – | – | –
4 | COC(=O)C1CCC(NC(=O)C2(C(F)(F)F)CC(c3cccc(F)c3)=NO2)C1 (mixture of isomers) [Example I-325] | 90 | 80 | 100 | 90 | 90 | 100 | 80 | 90 | 80 | – | – | – | – | – | –
5 | CCOC(=O)C1CCC(NC(=O)C2(C(F)(F)F)CC(c3cccc(F)c3)=NO2)C1 (mixture of isomers) [Example I-339] | 100 | 100 | 100 | 100 | 100 | 100 | 100 | 100 | 90 | – | – | – | – | – | –
6 | O=C(OCCCl)C1CCC(NC(=O)C2(C(F)(F)F)CC(c3cccc(F)c3)=NO2)C1 (mixture of isomers) [Example I-409] | 100 | 90 | 100 | 100 | 100 | 100 | 100 | 100 | 90 | – | – | – | – | – | –
7 | O=C(OCC(F)(F)F)C1CCC(NC(=O)C2(C(F)(F)F)CC(c3cccc(F)c3)=NO2)C1 (mixture of isomers) [Example I-423] | 100 | 90 | 100 | 100 | 100 | 100 | 90 | 100 | 90 | – | – | – | – | – | –
8 | CCOC(=O)C1CCC(NC(=O)C2(C(F)(F)F)CC(c3cc(C)cc(F)c3)=NO2)C1 (mixture of isomers) [Example I-543] | 90 | 100 | 100 | 90 | 80 | 90 | 100 | 80 | 90 | – | – | – | – | – | –
9 | COC(=O)C1CCC(NC(=O)C2(C(F)(F)F)CC(c3cc(C)cc(Cl)c3)=NO2)C1 (mixture of isomers) [Example I-802] | 90 | 90 | 100 | 80 | 80 | 90 | 100 | 90 | 90 | – | – | – | – | – | –
10 | Cc1cc(Cl)cc(C2=NOC(C(=O)NC3CCC(C(=O)OCCCl)C3)(C(F)(F)F)C2)c1 (mixture of isomers) [Example I-838] | – | – | – | – | – | – | – | – | – | 100 | 80 | 90 | 100 | 100 | 80
11 | Cc1cc(Cl)cc(C2=NOC(C(=O)NC3CCC(C(=O)OCC(F)(F)F)C3)(C(F)(F)F)C2)c1 (mixture of isomers) [Example I-844] | – | – | – | – | – | – | – | – | – | 100 | – | 80 | 90 | 100 | 90
12 | CC(C)(C)OC(=O)[C@H]1CC[C@@H](NC(=O)C2(C(F)(F)F)CC(c3cc(F)cc(F)c3)=NO2)C1 (relative stereo) [Example I-85, tert-butyl cis-3-({[3-(3,5-difluorophenyl)-5-(trifluoromethyl)-4,5-dihydro-1,2-oxazol-5-yl]carbonyl}amino)cyclopentanecarboxylate] | – | – | – | – | – | – | – | – | – | 90 | 80 | 90 | 90 | – | 80
13 | O=C(O)[C@@H]1CC[C@H](NC(=O)[C@@]2(C(F)(F)F)CC(c3cc(F)cc(F)c3)=NO2)C1 [Example I-11, (1R,3S)-3-({[(5R)-3-(3,5-difluorophenyl)-5-(trifluoromethyl)-4,5-dihydro-1,2-oxazol-5-yl]carbonyl}amino)cyclopentanecarboxylic acid] | 80 | 80 | 90 | 80 | 80 | 90 | 80 | 90 | 80 | – | – | – | – | – | –
14 | COC(=O)[C@H]1CC[C@H](NC(=O)C2(C(F)(F)F)CC(c3cc(F)cc(F)c3)=NO2)C1 (stereo partly drawn) [Example I-20, methyl (1S,3S)-3-({[3-(3,5-difluorophenyl)-5-(trifluoromethyl)-4,5-dihydro-1,2-oxazol-5-yl]carbonyl}amino)cyclopentanecarboxylate] | – | – | – | – | – | – | – | – | – | 80 | 80 | 90 | 90 | – | 90
15 | COC(=O)[C@H]1CC[C@H](NC(=O)[C@@]2(C(F)(F)F)CC(c3cc(F)cc(F)c3)=NO2)C1 [Example I-28] | – | – | – | – | – | – | – | – | – | 80 | – | 90 | 90 | 80 | 80
16 | CCOC(=O)[C@H]1CC[C@H](NC(=O)[C@@]2(C(F)(F)F)CC(c3cc(F)cc(F)c3)=NO2)C1 [Example I-42] | 80 | 80 | 90 | 80 | 90 | 90 | 80 | 90 | 80 | – | – | – | – | – | –
17 | CCCOC(=O)[C@@H]1CC[C@H](NC(=O)[C@@]2(C(F)(F)F)CC(c3cc(F)cc(F)c3)=NO2)C1 [Example I-53] | 100 | 90 | 100 | 100 | 100 | 100 | 100 | 100 | 90 | – | – | – | – | – | –
18 | CC(C)OC(=O)[C@@H]1CC[C@H](NC(=O)[C@@]2(C(F)(F)F)CC(c3cc(F)cc(F)c3)=NO2)C1 [Example I-67] | 100 | 90 | 100 | 90 | 100 | 100 | 90 | 100 | 90 | – | – | – | – | – | –
